Test results as given in patent US8906943B2, “Synthetic compounds and methods to decrease nicotine self-administration” (priority 2010, dated 2014).
Where two headings read alike, the source gives them in different places. Marks after values point to notes of the source that are not given here. Each block holds one molecule with its values, some of them ahead of it.

Columns and labels:
[1] = tested on: nicotine self-administration in male Wistar rats; experiment: Nicotine i.v. self-administration (IVSA) in rats, FR1 schedule; type: in vivo, rat; conditions: for Number of nicotine infusions, Compound (15 mg/kg): 15 mg/kg i.p. 30 minutes before i.v. self-administration of 0.03 mg/kg/infusion nicotine; for % Change (decrease in nicotine self-administration): versus vehicle; for Number of nicotine infusions, Compound (25 mg/kg): 25 mg/kg i.p. 30 minutes before i.v. self-administration of 0.03 mg/kg/infusion nicotine; for ED50: Rattus norvegicus, iv, rats, read-out: apparent ED50, nicotine IVSA; for effect on nicotine intake, ANOVA of dose response: 1-hour self-administration sessions
Protocol: Male, Wistar rats trained in a paradigm of nicotine i.v. self-administration (IVSA) generally related to a modification of a previously published protocol (Watkins et al., Pharmacol Biochem Behavior 62, 743-751 (1999)). Rats were treated with test compounds I-7. […] At 3.0 mg/kg, responding for nicotine was decreased by 62% when compared to control (vehicle-treated) conditions. […] On the basis of these initial studies, more extensive work was done and IVSA studies of compounds 8, 10 and 11 were conducted.
As with all the compounds examined in this study, there was no carry-over effect. […] The dose-effect function for treatment of 11 on nicotine self-administration is shown in [FIG. 2].

human CYP2A6 = human CYP2A6 (Homo sapiens (Human), UniProt P11509); experiment: Inhibition of human CYP2A6-mediated coumarin 7-hydroxylation; type: biochemical; conditions: for Ki: read-out: Ki human CYP 2A6
Sequence of human CYP2A6 (P11509 whole entry): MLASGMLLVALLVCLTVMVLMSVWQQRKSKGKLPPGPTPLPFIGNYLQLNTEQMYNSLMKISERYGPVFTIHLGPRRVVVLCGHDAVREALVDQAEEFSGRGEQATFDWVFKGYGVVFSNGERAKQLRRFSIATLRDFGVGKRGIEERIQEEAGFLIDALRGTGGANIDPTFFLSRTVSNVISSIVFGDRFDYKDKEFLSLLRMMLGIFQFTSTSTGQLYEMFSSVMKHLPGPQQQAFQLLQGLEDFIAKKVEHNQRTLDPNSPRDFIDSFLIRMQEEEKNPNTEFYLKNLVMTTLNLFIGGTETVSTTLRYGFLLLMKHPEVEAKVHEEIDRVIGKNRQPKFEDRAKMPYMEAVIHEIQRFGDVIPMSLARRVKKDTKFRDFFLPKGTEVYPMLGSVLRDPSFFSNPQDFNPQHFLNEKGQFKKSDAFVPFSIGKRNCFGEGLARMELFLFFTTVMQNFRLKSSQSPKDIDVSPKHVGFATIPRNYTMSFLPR
Protocol: Our first studies were with highly purified human CYP2A6 that provided a convenient and relatively high-throughput measure of CYP2A6 inhibition. Full dose-response IC50 values (nine concentrations) were determined (Table 1).

CYP2B1 = CYP2B1 (Rattus norvegicus (Rat), UniProt P00176); experiment: Inhibition of rat CYP2B1; type: biochemical; conditions: pH 7.5, Inhibitor present at 100 μM, read-out: rCYP2B1 % inhibition
Sequence of CYP2B1 (P00176 whole entry): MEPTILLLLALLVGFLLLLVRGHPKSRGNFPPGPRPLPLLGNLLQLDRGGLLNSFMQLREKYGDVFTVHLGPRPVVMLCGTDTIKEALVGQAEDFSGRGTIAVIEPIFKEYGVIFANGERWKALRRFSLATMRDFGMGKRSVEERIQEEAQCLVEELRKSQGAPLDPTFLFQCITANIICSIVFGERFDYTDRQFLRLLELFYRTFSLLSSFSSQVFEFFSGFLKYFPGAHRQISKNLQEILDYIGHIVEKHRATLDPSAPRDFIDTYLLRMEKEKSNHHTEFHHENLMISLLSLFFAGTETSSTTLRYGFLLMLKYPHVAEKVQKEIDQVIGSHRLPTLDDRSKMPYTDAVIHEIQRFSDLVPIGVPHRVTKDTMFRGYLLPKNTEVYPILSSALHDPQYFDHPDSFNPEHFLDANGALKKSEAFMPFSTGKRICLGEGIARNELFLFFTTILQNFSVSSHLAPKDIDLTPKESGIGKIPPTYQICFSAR

hCYP2B6 = hCYP2B6 (Homo sapiens (Human), UniProt P20813); experiment: CYP2B6 inhibition, vivid blue substrate O-dealkylation; type: biochemical; conditions: for IC50: ND = no detectable inhibition
Sequence of hCYP2B6 (P20813 whole entry): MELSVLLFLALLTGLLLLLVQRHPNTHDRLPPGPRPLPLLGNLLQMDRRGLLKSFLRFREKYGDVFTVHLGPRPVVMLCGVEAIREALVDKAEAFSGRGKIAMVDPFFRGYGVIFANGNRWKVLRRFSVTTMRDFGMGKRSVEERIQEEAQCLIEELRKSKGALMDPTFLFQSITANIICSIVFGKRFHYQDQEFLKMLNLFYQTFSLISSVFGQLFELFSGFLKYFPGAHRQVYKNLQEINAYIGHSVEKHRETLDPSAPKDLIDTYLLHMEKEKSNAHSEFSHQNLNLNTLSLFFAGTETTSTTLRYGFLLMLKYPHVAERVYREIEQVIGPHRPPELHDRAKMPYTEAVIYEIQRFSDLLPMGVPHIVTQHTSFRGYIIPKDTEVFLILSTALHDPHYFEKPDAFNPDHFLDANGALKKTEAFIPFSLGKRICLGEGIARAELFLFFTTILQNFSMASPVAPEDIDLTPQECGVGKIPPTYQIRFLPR
Protocol: (§1) To gain insight into the selectivity of the synthetic compounds for inhibition of other CYPs, we examined the major CYPs present in human liver. […] A typical incubation mixture (final volume 0.25 mL) contained 50 mM Tris or KPhos buffer (pH 7.5), 0.5 mM NADP^+, 2.0 mM G6P, 1 U of G6P dehydrogenase and 0.6 mg DETAPAC and the inhibitor was added last to minimize interaction with the protein. After mixing on ice, the reaction was initiated by the addition of substrate and incubated at 37° C. with shaking in air. Organic extracts were analyzed by fluorescence (for fluorometric substrates) or injected onto a Hitachi L-7100 system equipped with a Hitachi L-7400 UV detector. Separations were done with an Altex Ultrasphere ODS (4.6 mm×250 mm, 5 μm) column and analytes were eluted with an isocratic solvent system consisting of water/acetonitrile/methanol (30:10:60, v/v/v) at a flow rate of 1.0 mL/min. Quantification of substrate and metabolite was determined from peak areas of the chromatogram and comparison with standard curves. IC50 values were determined with GraphPad Prism and kinetic data was converted into IC50 values. Each kinetic determination was reported as the mean±SD as described below. […] To measure CYP2A6 activity, coumarin 7-hydroxylation was determined as described in Denton et al., supra. To measure CYP3A4 activity, testosterone 6-hydroxylation was determined as described in Denton et al., supra. To measure CYP2E1, CYP2B6, CYP2C9, CYP2C19 and CYP2D6 activity, isozyme specific vivid blue substrate O-dealkylation was determined via a modified PanVera Vivid Assay Protocol as described in Denton et al., supra.

CYP2C19 = CYP2C19 (Homo sapiens (Human), UniProt P33261); experiment: CYP2C19 inhibition, vivid blue substrate O-dealkylation; type: biochemical; conditions: pH 7.5, probe isozyme specific vivid blue substrate (O-dealkylation), mean of triplicate, read-out: CYP2C19 Percent Inhibition
Sequence of CYP2C19 (P33261 whole entry): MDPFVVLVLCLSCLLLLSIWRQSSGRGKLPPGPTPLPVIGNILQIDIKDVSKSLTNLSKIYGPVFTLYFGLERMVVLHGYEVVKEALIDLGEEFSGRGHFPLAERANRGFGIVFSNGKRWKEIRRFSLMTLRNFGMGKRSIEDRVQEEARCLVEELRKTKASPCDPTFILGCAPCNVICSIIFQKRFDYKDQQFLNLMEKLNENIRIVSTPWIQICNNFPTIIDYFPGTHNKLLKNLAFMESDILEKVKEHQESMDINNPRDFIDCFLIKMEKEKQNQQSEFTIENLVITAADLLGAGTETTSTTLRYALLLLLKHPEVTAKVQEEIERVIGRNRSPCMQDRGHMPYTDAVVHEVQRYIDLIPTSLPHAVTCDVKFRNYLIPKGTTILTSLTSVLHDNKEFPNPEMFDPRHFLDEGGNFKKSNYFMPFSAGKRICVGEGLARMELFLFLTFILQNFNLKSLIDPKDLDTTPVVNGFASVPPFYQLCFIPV
Protocol: as §1

CYP2C9 = CYP2C9 (Homo sapiens (Human), UniProt P11712); experiment: CYP2C9 inhibition, vivid blue substrate O-dealkylation; type: biochemical; conditions: pH 7.5, probe isozyme specific vivid blue substrate (O-dealkylation), mean of triplicate, read-out: CYP2C9 Percent Inhibition
Sequence of CYP2C9 (P11712 whole entry): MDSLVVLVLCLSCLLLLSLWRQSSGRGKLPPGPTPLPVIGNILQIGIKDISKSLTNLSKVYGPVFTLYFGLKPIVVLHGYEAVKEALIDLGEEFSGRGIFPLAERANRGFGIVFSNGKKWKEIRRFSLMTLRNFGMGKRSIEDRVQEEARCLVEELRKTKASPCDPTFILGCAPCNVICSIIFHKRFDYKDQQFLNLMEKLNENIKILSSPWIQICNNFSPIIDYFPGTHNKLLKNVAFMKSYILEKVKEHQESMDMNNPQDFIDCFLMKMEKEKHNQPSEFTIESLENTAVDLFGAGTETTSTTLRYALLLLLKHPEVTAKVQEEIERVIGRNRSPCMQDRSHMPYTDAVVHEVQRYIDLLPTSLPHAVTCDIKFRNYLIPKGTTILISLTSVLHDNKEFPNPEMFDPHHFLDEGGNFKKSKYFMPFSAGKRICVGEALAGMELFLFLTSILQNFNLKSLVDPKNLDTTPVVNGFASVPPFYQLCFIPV
Protocol: as §1

CYP2D6 = CYP2D6 (Homo sapiens (Human), UniProt P10635); experiment: CYP2D6 inhibition, vivid blue substrate O-dealkylation; type: biochemical; conditions: pH 7.5, probe isozyme specific vivid blue substrate (O-dealkylation), mean of triplicate, read-out: CYP2D6 Percent Inhibition
Sequence of CYP2D6 (P10635 whole entry): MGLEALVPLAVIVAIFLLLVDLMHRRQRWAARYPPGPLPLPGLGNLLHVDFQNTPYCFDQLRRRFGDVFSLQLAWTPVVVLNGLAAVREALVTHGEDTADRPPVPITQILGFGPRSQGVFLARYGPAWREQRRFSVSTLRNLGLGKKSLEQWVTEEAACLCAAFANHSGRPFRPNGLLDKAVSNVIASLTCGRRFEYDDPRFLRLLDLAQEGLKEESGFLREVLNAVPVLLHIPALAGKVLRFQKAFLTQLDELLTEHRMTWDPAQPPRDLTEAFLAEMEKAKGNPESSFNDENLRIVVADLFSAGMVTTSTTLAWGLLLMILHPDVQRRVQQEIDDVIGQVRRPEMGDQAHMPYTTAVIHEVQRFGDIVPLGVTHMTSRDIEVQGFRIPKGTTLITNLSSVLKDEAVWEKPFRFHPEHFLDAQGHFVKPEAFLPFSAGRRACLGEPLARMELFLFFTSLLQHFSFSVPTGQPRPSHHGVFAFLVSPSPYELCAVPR
Protocol: as §1

CYP2E1 = CYP2E1 (Homo sapiens (Human), UniProt P05181); experiment: CYP2E1 inhibition, vivid blue substrate O-dealkylation; type: biochemical; conditions: for inhibition of human CYP 2E1 (in words): 10 μM; for inhibition at 10 µM: human, pH 7.5, probe isozyme specific vivid blue substrate (O-dealkylation), mean of triplicate, read-out: CYP2E1 Percent Inhibition
Sequence of CYP2E1 (P05181 whole entry): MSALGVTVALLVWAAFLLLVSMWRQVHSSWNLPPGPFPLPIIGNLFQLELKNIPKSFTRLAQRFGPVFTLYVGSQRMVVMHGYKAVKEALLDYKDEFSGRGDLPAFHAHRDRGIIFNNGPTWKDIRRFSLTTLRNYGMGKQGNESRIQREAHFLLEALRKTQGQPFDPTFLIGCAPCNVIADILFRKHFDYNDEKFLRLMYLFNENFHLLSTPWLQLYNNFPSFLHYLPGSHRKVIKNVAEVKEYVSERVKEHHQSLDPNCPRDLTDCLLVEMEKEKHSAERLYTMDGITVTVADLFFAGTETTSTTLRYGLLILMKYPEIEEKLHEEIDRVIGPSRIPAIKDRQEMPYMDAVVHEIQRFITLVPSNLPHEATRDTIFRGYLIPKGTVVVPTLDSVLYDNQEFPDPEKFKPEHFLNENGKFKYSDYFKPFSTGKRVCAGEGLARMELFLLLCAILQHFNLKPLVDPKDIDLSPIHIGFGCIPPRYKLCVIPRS
Protocol: as §1

CYP3A4 = CYP3A4 (Homo sapiens (Human), UniProt P08684); experiment: in vitro; conditions: pH 7.5
Sequence of CYP3A4 (P08684 whole entry): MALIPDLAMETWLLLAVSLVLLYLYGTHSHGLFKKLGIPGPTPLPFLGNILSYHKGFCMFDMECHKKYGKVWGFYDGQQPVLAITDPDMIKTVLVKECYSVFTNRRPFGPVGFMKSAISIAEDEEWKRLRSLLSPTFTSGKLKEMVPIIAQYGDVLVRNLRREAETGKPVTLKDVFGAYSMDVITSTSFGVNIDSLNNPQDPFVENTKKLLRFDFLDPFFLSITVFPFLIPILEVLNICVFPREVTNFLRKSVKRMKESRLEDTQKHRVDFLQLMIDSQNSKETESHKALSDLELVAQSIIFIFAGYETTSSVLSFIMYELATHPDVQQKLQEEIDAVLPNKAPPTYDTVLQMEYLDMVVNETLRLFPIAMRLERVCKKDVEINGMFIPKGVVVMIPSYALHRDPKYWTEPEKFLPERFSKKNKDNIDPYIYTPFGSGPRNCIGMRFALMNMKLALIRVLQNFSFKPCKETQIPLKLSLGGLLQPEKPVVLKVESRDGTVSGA
Protocol: as §1, with “Separations were done with an Altex Ultrasphere ODS (4.6 mm×250 mm, 5 μm) column and analytes were eluted with an isocratic solvent system consisting of water/acetonitrile/methanol (30:10:60, v/v/v) at a flow rate of 1.0 mL/min.” left out, “values.” for “values. Each kinetic determination was reported as the mean±SD as described below.”

food intake in rats = experiment: Order and food effects, operant food sessions; type: in vivo, rat; conditions: for Food Effects: mean ± SEM
From the text: The conclusion is that the effect of 10 and 11 was selective and highly efficacious on a biological target and not a promiscuous non-specific behavioral effect.

[2] = Table 1, purified human CYP2A6, nine concentrations, read-out: hCYP2A6 IC50
[3] = Table 3, read-out: CYP2A6 Inhibition IC50

Structure (SMILES): CNC1(C)C2CCC(C2)C1(C)C (centres unmarked) [Mecamylamine, reference compound]
decrease in responding for nicotine versus vehicle ([1]; 3.0 mg/kg, s.c., 30 minutes before the session, FR1): 62%

Structure (SMILES): NCc1ccc(-c2cccnc2)o1 [Compound 6]
Number of nicotine infusions, Compound (15 mg/kg) ([1]; FR1): 16.8 ± 2.3^d
% Change (decrease in nicotine self-administration) ([1]; 15 mg/kg i.p.): 27.6%
Number of nicotine infusions, Compound (25 mg/kg) ([1]; FR1): 8.3 ± 2.1^d
% Change (decrease in nicotine self-administration) ([1]; 25 mg/kg i.p.): 64.2%
IC50 (human CYP2A6; [2]): 200 nM
inhibition at 100 µM (CYP2B1): 46.6%

Structure (SMILES): c1ccc(CCn2ccnc2)cc1 [Compound 11, 1-Phenethyl-2-imidazol-1-yl]
inhibition at 10 µM (CYP2C19): 21%
inhibition at 10 µM (CYP3A4): 63%
ED50 [1]: 3 mg/kg
effect on nicotine intake, ANOVA of dose response ([1]; i.p.): significant effect
IC50 (human CYP2A6; [2]): 618000 nM
IC50 (human CYP2A6; [3]): 618 nM
inhibition at 10 µM (CYP2C9): 13%
inhibition at 10 µM (CYP2D6): 62%
effect on food intake (in words) (food intake in rats; 5 mg/kg, 30-min operant food sessions): significant suppression
Food Effects (food intake in rats; Dose 2.8 mg/kg): 79 ± 1.3
Food Effects (food intake in rats; Dose 5.0 mg/kg): 63 ± 5.6
inhibition at 100 µM (CYP2B1): 67.7%
inhibition of human CYP 2E1 (in words) (CYP2E1): some inhibition
inhibition at 10 µM (CYP2E1): 88%
inhibition of human CYP 2B6 (in words) (hCYP2B6): inhibited human CYP 2B6 to a certain extent
IC50 (hCYP2B6): > 20000 nM

Structure (SMILES): N[C@@H]1C[C@H]1c1ccccc1 (racemic) [Tranylcypromine, reference compound]
IC50 (human CYP2A6; [3]): 233 nM

Structure (SMILES): c1cncc(-c2c[nH]cn2)c1 [Compound 8]
effect on nicotine intake, ANOVA of dose response ([1]; i.p.): failed to reveal a significant effect
IC50 (human CYP2A6; [2]): 800000 nM
IC50 (human CYP2A6; [3]): 800 nM

Structure (SMILES): NCc1cc(-c2cccnc2)n[nH]1 [Compound 1]
Number of nicotine infusions, Compound (15 mg/kg) ([1]; FR1): 11.6 ± 2.9
% Change (decrease in nicotine self-administration) ([1]; 15 mg/kg i.p.): 14.7%
IC50 (human CYP2A6; [2]): 600 nM
inhibition at 100 µM (CYP2B1): 53.8%
IC50 (hCYP2B6): 66400 nM

The next lines start with results.

IC50 (human CYP2A6; [2]): 800 nM
inhibition at 100 µM (CYP2B1): 55.3%
IC50 (hCYP2B6): 67400 nM
Structure (SMILES): NCc1cc(-c2cccnc2)no1 [Compound 2]
Number of nicotine infusions, Compound (15 mg/kg) ([1]; FR1): 8.4 ± 1.7
% Change (decrease in nicotine self-administration) ([1]; 15 mg/kg i.p.): 19.2%
Number of nicotine infusions, Compound (25 mg/kg) ([1]; FR1): 5.6 ± 1.6^d
% Change (decrease in nicotine self-administration) ([1]; 25 mg/kg i.p.): 60. %

inhibition at 10 µM (CYP2C19): 43%
IC50 (human CYP2A6; [2]): 160 nM
Ki (human CYP2A6): 80 nM
inhibition at 10 µM (CYP2C9): 32%
inhibition at 10 µM (CYP2D6): 48%
inhibition at 100 µM (CYP2B1): 35.5%
inhibition of human CYP 2E1 (in words) (CYP2E1): some inhibition
inhibition at 10 µM (CYP2E1): 87%
IC50 (hCYP2B6): 12000 nM
Structure (SMILES): Clc1ccc(Cn2ccnc2)cc1 [Compound 3, N-(4-Chlorobenzyl)imidazole]
Number of nicotine infusions, Compound (15 mg/kg) ([1]; FR1): 13.0 ± 2.7
% Change (decrease in nicotine self-administration) ([1]; 15 mg/kg i.p.): 23.6%
inhibition of human CYP 2B6 (in words) (hCYP2B6): inhibited human CYP 2B6 to a certain extent

inhibition at 100 µM (CYP2B1): 47.9%
Structure (SMILES): Cc1ccsc1-c1cccnc1 [Compound 5]
Number of nicotine infusions, Compound (15 mg/kg) ([1]; FR1): 8.8 ± 1.6
Number of nicotine infusions, Compound (25 mg/kg) ([1]; FR1): 1.6 ± 0.7^d

inhibition at 10 µM (CYP2C19): 24%
inhibition at 10 µM (CYP3A4): 27%
IC50 (human CYP2A6; [2]): 170000 nM
inhibition at 10 µM (CYP2C9): 44%
inhibition at 10 µM (CYP2D6): 34%
Food Effects (food intake in rats; Dose 0.5 mg/kg): 80 ± 1.8
Food Effects (food intake in rats; Dose 1.58 mg/kg): 79 ± 2.5
Food Effects (food intake in rats; Dose 5.0 mg/kg): 77 ± 3.2
inhibition at 100 µM (CYP2B1): 56.9%
inhibition of human CYP 2E1 (in words) (CYP2E1): some inhibition
inhibition at 10 µM (CYP2E1): 89%
IC50 (hCYP2B6): 11000 nM
Structure (SMILES): c1cn(CC2CCCCC2)cn1 [Compound 10, N-(Cyclohexylmethyl)imidazole]
ED50 [1]: 4 mg/kg
effect on nicotine intake, ANOVA of dose response ([1]; i.p.): significant effect
inhibition of human CYP 2B6 (in words) (hCYP2B6): inhibited human CYP 2B6 to a certain extent

inhibition at 100 µM (CYP2B1): 53.5%
Structure (SMILES): c1cc(CCn2ccnc2)ccn1 [Compound 9, N-(4-Pyridylethyl)imidazole]
nicotine self-administration under a FR schedule (in words) ([1]; 15 mg/kg, i.p., 30-min prior): decreased nicotine self-administration

inhibition at 100 µM (CYP2B1): 42.7%
Structure (SMILES): NCc1ccc(-c2cccnc2)s1 [Compound 4]
Number of nicotine infusions, Compound (15 mg/kg) ([1]; FR1): 11.8 ± 3.2
% Change (decrease in nicotine self-administration) ([1]; 15 mg/kg i.p.): 23.4%

IC50 (human CYP2A6; [2]): > 200000 nM
Ki (human CYP2A6): > 200000 nM
inhibition at 100 µM (CYP2B1): 43.3%
Structure (SMILES): c1cncc(Cn2ccnc2)c1 [Compound 7, N-(3-Pyridylmethyl)imidazole]
Number of nicotine infusions, Compound (15 mg/kg) ([1]; FR1): 7.5 ± 1.9^d
% Change (decrease in nicotine self-administration) ([1]; 15 mg/kg i.p.): 28.6%
